Measurements taken from patent US8846653B2, “Delta-tocotrienol treatment and prevention of pancreatic cancer” (University of South Florida, priority 2006, dated 2014).

Key:
[1] = system: pancreatic cancer metastasis; assay: Pancreatic cancer metastasis in vivo (luminescence); design: species or system mouse
Description: Images show comparison of vehicle vs. 100 MPK
The apoptotic effect of delta-tocotrienol was selective for neoplastic cells as normal pancreatic cells and in vitro immortalized human pancreatic ductal epithelial cells were not sensitive to delta-tocotrienol.

[2] = system: MIA PaCa-2 cells; assay: Trypan blue cell death, δ-tocotrienol, 5-FU or combination, 24 hours; assay type: cell-based, human; settings: MIA PaCa-2, 50 μM each
Experimental: MIA PaCa-2 cells were treated vehicle or an anti-proliferative treatment comprising 50 μM δ-tocotrienol, 50 μM 5-FU, or 50 μM δ-tocotrienol and 50 μM 5-FU for 24 hours. Cells were harvested, fixed, permeablized and stained with trypan blue.

[3] = system: MIA PaCa-2 cells (pZWL vector and myrAKT); assay: Cell death (trypan blue) in vector and myrAKT MIA PaCa-2 cells; assay type: cell-based, human; settings: MIA PaCa-2 vector vs myr-AKT cells, 24 hours, compared to vehicle
Experimental: FIG. 12 is a graph wherein MIA PaCa-2 cells (pZWL vector and myrAKT) were treated without serum vehicle or δ-tocotrienol (50 μM) for 24 hours, with and without a 10-hour caspase 8/3 inhibitor pretreatment. Cells were also treated with TRAIL as a positive control. Cells were then harvested, fixed, permeablized and stained with trypan blue.
To further identify the role of AKT in the apoptotic pathways noted in Example 2, functional overexpression of CA-AKT was analyzed in Mia-PaCa2 pancreatic cancer cells. MIA PaCa-2 cells were treated with pZWL vector and myrAKT, a retroviral vector encoding myristoylated AKT, with or without serum, vehicle, or δ-tocotrienol (40 or 50 μM) for 24 hours, with and without a 10-hour caspase 8 inhibitor pretreatment. Cells were also treated with TRAIL as a positive control. Cells were then harvested, fixed, permeablized and stained with trypan blue.
The myristoylated AKT rescued δ-tocotrienol suppression PI3K-AKT signaling. The MiaPaCa-2 parental cell lines were stably transfected using constitutively active myristoylated AKT in a pWZL vector construct to generate MiaPaCa-2AKT cells. […] Lastly, pretreatment with caspase 3, 8 and 9 inhibitors rescued tocotrienol induced cell death.

[4] = system: MIA PaCa2 cells; assay: TUNEL staining; assay type: cell-based, human; settings: MIA PaCa2, 20 μM, 24 hours, vs vehicle or treated HPDE 6C7
Experimental: (§1) In addition to its chemopreventive effects, δ-Tocotrienol induces apoptosis in pancreatic cancer. MIA PaCa2 cells were treated with either δ-tocotrienol or vehicle for 24 hours. Cells were collected and stained with annexin V-FITC and analyzed by flow cytometry for apoptosis. […] MIA PaCa2 cells and HPDE 6C7 cells were treated with vehicle or δ-tocotrienol (20 μM) for 24 hours, then harvested and stained for TUNEL. […] Cell lysates were prepared from MIA PaCa2 cells treated with 8-tocotrienol (20 μM) at progressive time intervals and proteins from lysates were run by SDS PAGE and immunoblotted for biomarkers of apoptosis.

[5] = system: oncogenic Ras signaling targets in tumors; assay: Immunohistochemical staining of extracted xenograft tumors; assay type: in vivo, mice
Experimental: FIGS. 50A and B are immunohistochemical stains of the effects of δ-tocotrienol on oncogenic Ras signaling targets. […] A. A comparison of H&E, Ki67, and p-MAPK staining of control versus delta-tocotrienol treated MIA PaCa2 cells. B. A comparison of p-AKT, p27^kip1, and TUNEL staining of control versus delta-tocotrienol treated cells.
Tumors were extracted on the last day of treatment and imbedded in paraffin. Immunohistochemical staining was performed to determine the effects of δ-tocotrienol on oncogenic Ras signaling targets. […] Furthermore, the biomarker proteins p-MAPK and p-AKT were decreased and p27^kip1 expression was increased in δ-tocotrienol treated tumors. […] This is associated with inhibition of AKT signaling targets. Moreover, overexpression of myr AKT in Pancreatic Cancer cells rescues the effect δ-Tocotrienol induces apoptosis in vitro and in vivo.

[6] = system: MIA PaCa2 cells; assay: Proliferation by MTT, increasing concentrations of δ-tocotrienol; assay type: cell-based, human; settings: MIA PaCa2, at 24 hours; read-out: IC50 (inhibition of proliferation, MTT)
Experimental: FIG. 22 is a graph wherein MIA PaCa2 pancreatic cancer cells (3×10^3) were plated in 96 well plates and treated the following day with δ-tocotrienol. Proliferation was assessed by MTT at 24 hour intervals. […] HPDE 6C7 cells were also treated with increasing concentrations of δ-tocotrienol for 24 hours.
MIA PaCa2, SW1990, BXPC3, and HPDE 6C7 cells (3×10^3) were cultured as described in the Examples above, in 96-well plates and treated the following day with increasing concentrations of δ-tocotrienol.

[7] = system: p-cRaf, p-MEK, and p-ERK; assay: Immunoblot of downstream phosphorylated targets of oncogenic Ras; assay type: cell-based, human; settings: pancreatic cancer cell lines, 20 μM
Experimental: The Ras effector pathways Raf-MEK-ERK and PI3 kinase-AKT are important for cell proliferation and survival, respectively. Pancreatic cancer cell lines (MIA PaCa2, SW1990, BXPC3) and HPDE 6C7 cells were treated with 8-tocotrienol (20 μM) and cell lysates were collected and prepared at progressive time intervals as described above. Proteins from lysates were run by SDS PAGE and immunoblotted with the following antibodies: Ras, p-cRaf (ser 338), p-MEK1/2, MEK1/2, pERK 44/42, ERK 44/42 (Cell Signaling) and c-Raf (BD Transduction Laboratories). […] The MIA PaCa2 and SW1990 cells were then tested for AKT inhibition. The cells were treated with δ-tocotrienol (20 μM) for 24 and 48 hours and cell lysates were run by SDS-PAGE and immunoblotted for p-AKT and AKT (Cell Signaling). […] Taken together, the inhibition of downstream effectors of oncogenic Ras signaling by δ-tocotrienol without an effect on Ras protein levels may indicate a negative regulatory role of 8-tocotrienol on the function of oncogenic Ras. The pancreatic ductal epithelial cell proliferative inhibition by δ-tocotrienol was tested to see if it occurs through blocking aberrant signal transduction cascades. […]

[8] = system: Caspase 8, Caspase 3, PARP, cytochrome C, caspase 9; assay: Immunoblot for biomarkers of apoptosis (caspase cascade); assay type: cell-based, human; settings: MIA PaCa2, 20 μM
Experimental: An aliquot of the cells were collected and cells lysed. The lysate was then run on a Western blot and cleavage of caspase 8, caspase 3, and PARP detected.
as §1

[9] = tumors from treated mice vs control group

CC(C)=CCC/C(C)=C/CC/C(C)=C/CC[C@]1(C)CCc2cc(O)cc(C)c2O1 [T3 delta, delta tocotrienol]
tumor response at the highest dose ([1]; highest dose, compared to vehicle/PBS): tumor regression
pancreatic cancer metastasis ([1]; in vivo, vs vehicle/PBS): inhibits pancreatic cancer metastasis
cell death (Trypan Blue) [2]: significantly more than 5-FU alone
cell death [3]: induced more cell death in the vector cells than the myr-AKT cells
TUNEL staining [4]: significant staining for TUNEL
p27^kip1 expression ([5]; treated tumors): increased
p-AKT ([5]; treated tumors): decreased
p-MAPK ([5]; treated tumors): decreased
Ki67 staining (proliferation) [5, 9]: decrease in Ki67
TUNEL staining (apoptosis) [5, 9]: induction of apoptosis
IC50 [6]: 20 to 25 µM
downstream phosphorylated targets of oncogenic Ras p-cRaf, p-MEK, p-ERK [7]: selectively inhibited
mitochondrial pro-apoptotic proteins (cytochrome C release, cleavage of caspase 9) [8]: no significant effect
caspase cascade: cleavage of caspase 8, caspase 3, PARP ([8]; time dependent): activation of the caspase cascade
